Laboratory results from US12569452B2, “Ophthalmic compositions comprising F6H8” (NOVALIQ GMBH, priority 2017, dated 2026).

What was measured:
Format in all cases: in vivo, human
[1] = system: patients with mild to moderate dry eye disease; test: Tear film thickness (TFT) by high resolution optical coherence tomography, Example 2
Method: (§1) The study is conducted to evaluate the influence of 1-perfluorohexyl-octane (F6H8, NovaTears®) on tear film thickness in patients with mild to moderate dry eye disease. Herein the administration of 1-perfluorohexyl-octane is compared to Hydrabak (0.9% sodium chloride, Laboratoires Théa).
(§2) 48 patients (safety population) are randomized (1:1 ratio) to receive either F6H8 or Hydrabak. One drop of F6H8 (droplet volume=10-11 μl) or Hydrabak is instilled in each eye 4 times daily for 30 days. DED relevant clinical measures are recorded at Visit 1 (day 0, baseline), Visit 2 (15±2 days) and Visit 3 (30±3 days). The primary outcome variable includes Tear film thickness (TFT) as measured with high resolution optical coherence tomography (OCT), while secondary outcome variables comprised Lipid Layer Thickness (LLT) of the tear film (with LipiView Interferometer), Non-Invasive Tear Break Up Time (NITFBUT) with Bon Antares Tear Film Topographer, Dynamic Meibomian Gland Imaging (DMI) with LipiView Interferometer, Blink frequency (with LipiView interferometer), Dry Eye Visual Analogue Scale (VAS), Corneal fluorescein staining, Conjunctival lissamine green staining, Schirmer I test, Tear Film Break Up Time (TFBUT), Ocular Surface Disease Index (OSDI), Adverse Events (AEs) and others.

[2] = system: patients with mild to moderate dry eye disease; test: Lipid Layer Thickness (LLT) of the tear film with LipiView Interferometer, Example 2; settings: for Lipid Layer Thickness measured in the morning before first daily dosing (relative change from baseline in %): 4 times daily dosing
Method: as §1, §2

[3] = system: patients with mild to moderate dry eye disease; test: Adverse events, Example 2; settings: 4 times daily for 30 days; all adverse effects mild, low incidence
Method: as §2

[4] = system: Dry Eye Disease (DED) patients with MGD involvement; test: Corneal fluorescein staining (NEI scale), Phase 2 study Example 3; settings: vs saline
Method: (§3) A Phase 2, Multi-Center, Randomized, Double-Masked, Saline-Controlled Study to Evaluate the Effect of 1-Perfluorohexyloctane (NOV03; F6H8) at two different dosing regimens on signs and symptoms of Dry Eye Disease (DED). The study was performed at 11 investigational cites in the United States. The study was reviewed and approved by the respective ethics committees and registered at www.clinicaltrials.gov (NCT03333057).
(§4) The study is performed to evaluate the safety, efficacy and tolerability of F6H8 at two different dosing regimens compared to saline on signs and symptoms of Dry Eye Disease.
(§5) Study subjects receive one of the following treatments over a period of 4 visits on day 1, 15, 30 and 60: • (1) F6H8 (NOV03), 4 times daily (QID); • (2) F6H8 (NOV03), 2 times daily (BID); • (3) Saline solution (0.9% sodium chloride solution), 4 times daily (QID); • (4) Saline Solution (0.9% sodium chloride solution), 2 times daily (BID).
(§6) In the BID treatment, study subjects instil bilaterally one drop in each lower eyelid conjunctival fornix two times daily. The instilled drop volume of F6H8 is about 10-12 μl, translating to a single dose of 13.5-16.2 mg (with F6H8 density=1.35 g/ml). […]

[5] = system: Dry Eye Disease (DED) patients with MGD involvement; test: Eye Dryness Score on Visual Analog Scale (VAS), Phase 2 study Example 3; settings: BID, 2, 4 and 8 weeks
Method: as §3, §4, §5, §6

[6] = system: Dry Eye Disease (DED) patients with MGD involvement; test: Ocular Surface Disease Index (OSDI), Phase 2 study Example 3; settings: BID, 2, 4 and 8 weeks
Method: as §3
The study is performed to evaluate the safety, efficacy and tolerability of F6H8 at two different dosing regimens compared to saline on signs and symptoms of Dry Eye Disease. […]
The subjects were asked to fill out an OSDI© questionnaire (see for example, Schiffman R M, et al., Arch Ophthalmol. 2000; 118:615-621) consisting of 12 questions, and asked to respond on a scale of 0 to 4, with 0 corresponding to ‘none of the time’ and 4 corresponding to “all of the time”. The questions assess dry eye symptoms experienced by the patient within past week in terms of the following ocular symptoms: sensitivity to light, gritty sensation, pain or sore eyes, blurriness, and poor vision; vision-related function, in terms of problems in: reading, driving at night, working on a computer or bank machine, watching television; and environmental factors or triggers i.e. discomfort during: windy conditions, places with low humidity, and areas with air condition. […]

[7] = system: Dry Eye Disease (DED) patients with MGD involvement; test: Adverse events, Phase 2 study Example 3; settings: daily dose 20-24 μl
Method: as §3, §4, §5
In the BID treatment, study subjects instil bilaterally one drop in each lower eyelid conjunctival fornix two times daily. The instilled drop volume of F6H8 is about 10-12 μl, translating to a single dose of 13.5-16.2 mg (with F6H8 density=1.35 g/ml).

[8] = system: patients with mild to moderate dry eye disease; test: Corneal fluorescein staining, Example 2; settings: 4 times daily, 4 weeks
Method: as §2

CCCCCCCCC(F)(F)C(F)(F)C(F)(F)C(F)(F)C(F)(F)C(F)(F)F [F6H8, 1-perfluorohexyloctane]
Tear Film Thickness after continuous dosing 4-times daily (relative change from baseline in %) ([1]; 2 weeks, 10 min): 8.71%
Tear Film Thickness after continuous dosing 4-times daily (relative change from baseline in %) ([1]; 2 weeks, 20 min): 8.57%
Tear Film Thickness after continuous dosing 4-times daily (relative change from baseline in %) ([1]; 2 weeks, before instillation): 1.43%
Tear Film Thickness after continuous dosing 4-times daily (relative change from baseline in %) ([1]; 4 weeks, 10 min): 9.12%
Tear Film Thickness after continuous dosing 4-times daily (relative change from baseline in %) ([1]; 4 weeks, 20 min): 10.35%
Tear Film Thickness after continuous dosing 4-times daily (relative change from baseline in %) ([1]; 4 weeks, before instillation): 3.22%
Relative change (%) in Tear film thickness from baseline, F6H8 compared with Hydrabak (primary MMRM analysis) ([1]; 48 subjects of the safety population): significantly higher
Tear film thickness, least squares mean difference F6H8 vs Hydrabak (MMRM, post-hoc) ([1]; Visit 1, safety population 48 subjects): 1.29%
Tear film thickness, least squares mean difference F6H8 vs Hydrabak (MMRM, post-hoc) ([1]; Visit 2, safety population 48 subjects): 4.33%
Tear film thickness, least squares mean difference F6H8 vs Hydrabak (MMRM, post-hoc) ([1]; Visit 3, reached significance): 6.42%
Tear Film Thickness at study start (relative change from baseline in %) ([1]; single dose on Visit 1, 10 min after instillation): 13.39%
Tear Film Thickness at study start (relative change from baseline in %) ([1]; single dose on Visit 1, 20 min after instillation): 6.63%
Tear Film Thickness at study start (relative change from baseline in %) ([1]; single dose on Visit 1, 40 min after instillation): 4.64%
Tear Film Thickness at study start (relative change from baseline in %) ([1]; single dose on Visit 1, 60 min after instillation): 4.03%
Tear Film Thickness at study start (relative change from baseline in %) ([1]; single dose on Visit 1, 120 min after instillation): 4.76%
Tear Film Thickness at study start (relative change from baseline in %) ([1]; single dose on Visit 1, 240 min after instillation): 3.28%
Lipid Layer Thickness measured in the morning before first daily dosing (relative change from baseline in %) ([2]; 2 weeks): 6.83%
Lipid Layer Thickness measured in the morning before first daily dosing (relative change from baseline in %) ([2]; 4 weeks): 4.10%
LLT relative change from baseline, estimated least square mean difference F6H8 vs Hydrabak (post hoc MMRM) ([2]; values recorded before instillation): 16.34%
Safety and tolerability in patients with DED [3]: safe and well tolerated
Total corneal fluorescein staining (reduction of ocular surface damage of total corneal region) ([4]; BID dosing regimen, 8 weeks): met its prespecified primary efficacy endpoint
Reduction of ocular surface damage of central, nasal and temporal corneal region ([4]; BID, fluorescein staining NEI scale): clear improvements
VAS symptoms of dryness (severity, frequency, awareness of dryness, blurred vision, sensitivity to light) over placebo [5]: highly statistical significant improvement
Symptoms of dryness by OSDI score incl. total OSDI score over placebo [6]: highly statistical significant improvement
Adverse effects, 2-times daily schedule (BID) [7]: trend towards less adverse effects
Corneal Staining reduction compared with Hydrabak group [8]: tended to be stronger reduced
